Data published in a melting point compilation (Tetko et al.; mined from patent text by program, amines drawn as free bases though some values may be those of a salt).

Structure (SMILES) | melting point [°C]
NC(=O)Cc1ccc(-c2ccc3nnn(Cc4ccc5ncccc5c4)c3n2)cc1 | 220 to 223
CCOc1cc(-c2ccc(S(C)(=O)=O)cc2)c(-c2ccc(F)cc2)c(C(F)(F)F)n1 | 168 to 170
N#Cc1ccccc1Sc1ccc([N+](=O)[O-])cc1 | 151 to 153
CCOC(=O)C1=Cc2cc(Cl)ccc2OC1C(F)(F)F (stereo unspecified) | 62 to 64
Cc1c(C(=O)c2ccc(Cl)cc2)oc2cccc(O)c12 | 238 to 241
CC12CCC(C1)C1(C)Oc3ccc(C=O)cc3C21C (stereo unspecified) | 145
COC(=O)C(C#N)(Cc1ccc(-c2cccc(C(F)(F)F)c2)cc1)C(c1ccccc1OC)c1cccc2ccccc12 (stereo unspecified) | 202 to 204
CC1(c2onc(-c3ccc(O)cc3)c2-c2ccccc2)CC1 | 212 to 214
CC(=C(C#N)C(=O)c1ccccc1)N(C)C | 105 to 106
CC(C)(C)OC(=O)C(Nc1ccccc1)C(=O)OC(C)(C)C | 94
COc1ccc(C(C)N(C)CCCOc2ccc(S(=O)(=O)c3ncsc3-c3ccccc3)cc2)cc1OC (stereo unspecified) | 162
CCc1nc(CN(C)C(=O)N[C@H](C(=O)N[C@@H](Cc2ccccc2)C[C@H](O)[C@H](Cc2ccccc2)NC(=O)OCc2cncs2)C(C)C)cs1 | 70 to 71
COc1ccccc1NC(=O)Nc1ccc(N2CCN(C(=O)Nc3ccc(OCCO)cc3C(F)(F)F)CC2)cc1 | 118 to 120
CCC#CCOc1ccc(C=O)cc1OC | 47 to 50
Cc1cc2c(cc1N1CCOCC1)OC(=O)C2C (stereo unspecified) | 108 to 109
COC(=O)c1ccc(NC(=O)CNc2ccccc2F)cc1 | 169 to 171
C=C(c1ccccc1)S(=O)(=O)c1ccc(C(C)(C)C)cc1 | 99
Cc1nc2cc(Cl)c(C)c(Cl)c2o1 | 80 to 82
Cc1c(C(=O)O)cnn1CC(F)(F)F | 188 to 190
Oc1c(Sc2ccccc2)sc2ccccc12 | 71 to 73
COc1cc(-c2nc3ccccc3n2Cc2ccccc2C)cc(OC)c1OC | 140

Structure (SMILES) | melting point [°C]
NC(=NCC(F)(F)F)Nc1ccnc(CCCCc2c[nH]cn2)n1 | 191 to 193
CCCCN(C)C(=O)c1cccc(-c2nc(=O)c3ccccc3s2)n1 | 80 to 81.6
O=C(O)c1cc(-n2c(-c3ccccc3)cc3c2-c2ccccc2CC3)ccc1O | 215 to 218
CCNC1CCc2[nH]c3ccccc3c2C1 (stereo unspecified) | 128 to 129
CS(=O)(=O)c1ccc(-c2cc(-c3ccc(F)cc3)n3c2CCC3)cc1 | 176 to 179
CCOC(=O)C(Cl)=Cc1cc(N(C(N)=S)c2cscc2C(=O)OC)ccc1Cl | 158 to 160
Cc1c(C(=O)Nc2cccc(C#N)c2N2CCC(N3CCOCC3)CC2)cnn1-c1ccc([N+](=O)[O-])cc1 | 265
CCn1nc(OCCCCc2ccc(OC(C)C)cc2Oc2ncc(C(F)(F)F)cc2Cl)cc1CCC(=O)O | 129 to 130
CC(C)NCC(O)COc1ccc(C2=NNC(=O)CC2)cc1 (stereo unspecified) | 108 to 115
CC(C)(C)c1cc(CCc2ccccc2NC(=O)NCCCN2CCOCC2)cc(C(C)(C)C)c1O | 138 to 139
Cc1ccc(Nc2nnc(-c3ccc(SC(F)(F)F)cc3)s2)cc1Cl | 215 to 216
Cc1cccc(NCCC(N)=S)c1C | 116 to 118
CC1CN=C(c2cccs2)NO1 (stereo unspecified) | 70 to 72
O=c1ccsn1Cc1ccccc1 | 78 to 80
C[Si](C)(C)CCCCCCCCCCCNc1ccc(C(=O)O)cc1 | 121 to 122
CCOC(=O)c1cc2cccnc2n1Cc1ccccc1 | 71 to 72
CCC(C#N)(C(N)=O)c1ccccc1 (stereo unspecified) | 116 to 117
CCCNC(=O)C(CCC(=O)NCCCOC(C)=O)NC(=O)OCc1ccccc1 (stereo unspecified) | 98 to 102
CC12CC(N3CCOCC3)C(O)CC1CCC1C2CCC2(C)C(O)C(N3CCCC3)CC12 (stereo unspecified) | 226
CN1CCN(c2cccc3c2C[C@H](NC(=O)c2ccc(C(F)(F)F)cc2)CO3)CC1 | 212 to 214
CC(=O)NCC#CCn1cncc1C | 111 to 115

Structure (SMILES) | melting point [°C]
Cc1c(-c2ccccc2)c(N2CC[C@H](N(C)C)C2)c2oc(N3CC(C)(O)C3)nc2c1C#N | 167 to 169
Cc1nc(-n2c(C)ccc2C)nc(C)c1Br | 64 to 65
CCOC(=O)CCCCn1c(=O)[nH]c2ccc(OCOCCOC)cc2c1=O | 105 to 107
O=C(NC(=O)c1c(Cl)cccc1Cl)Nc1cnc(-c2ccc(Cl)cc2)cn1 | 245 to 249
CC1(C)Oc2ccc(C#N)cc2[C@@H](N2CCCC2=NC#N)[C@@H]1O (relative stereo) | 246 to 247
CC1Cc2cccc(-c3cccc4ccccc34)c2C1=O (stereo unspecified) | 104 to 105
O=C(O)CCC(CC1(C(=O)NC2CCC(C(=O)OCc3ccccc3)CC2)CCCC1)C(=O)OCc1ccccc1 (stereo unspecified) | 103 to 104
COc1cc(OC)cc(C2CN3CCC2CC3)c1 (stereo unspecified) | 142 to 145
O=C1c2c(F)ccc(F)c2C(=O)N1CCN1CCC(c2noc3cc(F)ccc23)CC1 | 144 to 145
NCC(=O)N1Cc2ccccc2Oc2ccc(Cl)cc21 | 108 to 109
O=S(=O)(Nc1onc2c1CCC2)c1ccccc1 | 132
N=C(Cc1ccccc1)NS(=O)(=O)C=Cc1ccc(Cl)c(Cl)c1 | 151 to 155
Cc1c(C)c2c(c(C)c1O)C(=O)CC(C)(COc1ccc([N+](=O)[O-])cc1)O2 (stereo unspecified) | 199 to 204
O=c1c(-c2cccc(Cl)c2)c[nH]n1-c1cccc(C(F)(F)F)c1 | 190 to 192
CCOC(=O)c1cnn2c1c(O)nc1c(C)nn(C)c12 | 246 to 247
O=C(O)c1ccc(C2=NOC(c3cc(Cl)cc(Cl)c3)(C(F)(F)F)C2)cc1F (stereo unspecified) | 172 to 174
COc1cc(C(=O)O)ccc1Cn1ccc2ccc(NC(=O)OC3CCCC3)cc21 | 237 to 238
Nc1ncnc2c1c(-c1ccc(Oc3ccccc3)cc1)cn2CC(=O)NCCN1CCNCC1 | 138 to 140
COc1cc(COc2nn(C)cc2CC(=O)O)ccc1OCc1nc(-c2ccccc2)oc1C | 153 to 154

Other lines, results leading:

melting point [°C] | Structure (SMILES)
158 to 160 | O=C(O)COc1ccc(SCc2ccc(OCc3cc(Cl)ccc3Cl)cc2)c2c1CCC2
> 250 | O=C1N=NC(=O)c2c1[nH]c1cc(I)ccc21
107 to 109 | O=S(=O)(Nc1cccc(CCOCc2nc(-c3ccc(C(F)(F)F)cc3)sc2Cl)c1)C(F)(F)F
193 to 196 | Nc1cc(-c2c[nH]cn2)ccn1
198 to 199 | Cc1ccc(C(=O)Nc2c(NC(=O)CCl)ccc3c2C(=O)c2ccccc2C3=O)cc1
63 to 67 | O=C1c2cc(Br)ccc2CCC1Cc1cccnc1 (stereo unspecified)
121 to 125 | O=C1NCCN1Cc1cccc2ccccc12
214 to 217 | CCCCc1nc(C(C)O)c(C(=O)O)n1Cc1ccc(-c2ccccc2-c2nnn[nH]2)cc1 (stereo unspecified)
202 to 203 | c1ccc2c(c1)Cn1cccc1-c1nccn1-2
211 | CCc1cn2c(N)c(Cl)cc(C(=O)NCC3CCN(CC(C)(C)OC)CC3)c2n1
84 to 88 | CN1CCN(c2ccc(O)c3c2C[C@H](NC(=O)c2ccc(N4CCOCC4)cc2)CC3)CC1
127 to 129 | CCN(CC)c1ccc2cc(C(=O)NN)oc2c1
131 to 134 | CN(C(=O)N(CF)CF)c1nc2ccccc2s1
158 to 160 | CCCCn1c(C)c(Br)c(=O)c(C(=O)Nc2c(CC)cccc2CC)c1C
110 to 118 | CCCCN(CCC12CC3CC(CC(C3)C1)C2)C(=O)NCCCc1ccncc1
> 270 | CC1(C)C(=O)Nc2ccccc2NC1=O
167 to 168 | O=c1ccn(-c2cccc(C(F)(F)F)c2)nc1-c1ncnn1-c1ccccc1
187 to 189 | COc1cc(C2(O)NC(=O)c3cc(OCc4ccccc4)ccc32)cc(OC)c1OC (stereo unspecified)
103 to 105 | CCOC(=O)CN=C1N[C@](C)(Cc2ccc(Br)cc2)C(=O)N1c1cc(Cl)cc(Cl)c1
151 to 155 | CCCc1c(OCCCOc2cc(OCC(=O)O)ccc2C(C)=O)ccc(C(C)=O)c1O

melting point [°C] | Structure (SMILES)
99 to 100 | CCCN(CC)C1(c2ccccc2)c2ccccc2OC1[N+](=O)[O-] (stereo unspecified)
292 to 293 | N=C(N)c1ccc(S(=O)(=O)NCCc2ccc(OCC(=O)O)cc2)cc1
78 | COc1ccc(COc2cccc(C=O)c2)cc1
219 to 221 | C[C@H](NC(=O)c1cc(F)cc(NS(=O)(=O)CC2CN(C(c3ccc(Cl)cc3)c3ccc(Cl)cc3)C2)c1)C(N)=O
107 to 109 | CNC(=O)C1CCc2ccccc21 (stereo unspecified)
101 to 102 | CC(=O)C(CC(C)C)NC(=O)CCOc1ccc([N+](=O)[O-])cc1 (stereo unspecified)
211 to 213 | Cc1c(Br)c2c(c(C)c1NC(=O)CC(C)(C)C)C(c1ccc(C(C)C)cc1)CS2(=O)=O (stereo unspecified)
131 to 132 | CCc1ncnc(N[C@H]2CC[C@@H](C#N)CC2)c1Cl
166 to 168 | CCOc1cc(N)c(Cl)cc1C(=O)NC[C@H]1CN(CC2CCN(C(=O)N3CCC3)CC2)CCO1
248 | CC1SC(=O)NN=C1c1ccc2c(c1)C(C)(C)C(=O)N2C(=O)Oc1ccccc1 (stereo unspecified)
94 to 105 | CCN(C(=O)C(C)Cl)c1cn(-c2cccnc2)nc1Cl (stereo unspecified)
132 to 133 | Cc1ccc(-c2ccc3c(c2)C=C(C=O)CCO3)cc1
89 to 92 | COc1ccc(S(=O)(=O)C(CC=C(C)C)(Cc2cccnc2)C(=O)NO)cc1 (stereo unspecified)
31 to 33 | CCc1n[nH]c(CC)c1CCCCCCOc1ccc(Br)cc1
216 to 217 | CC1(C)CCC(C)(C)c2cc(C(=O)C(=O)Nc3ccc(C(=O)O)cc3)ccc21
84 to 95 | CC1Oc2ccc([N+](=O)[O-])cc2O1 (stereo unspecified)
93 to 94 | CCCCS(=O)(=O)C1CC(=O)N1CC(=O)CCc1ccccc1 (stereo unspecified)
186 to 188 | Nc1nc2ccc(CCN3CCC(C(=O)c4ccccc4)CC3)cc2s1
110 to 113 | CC(Cc1ccc(OCc2cccc(C(F)(F)F)c2)cc1)NC(=O)CC(c1ccccc1)c1ccccc1 (stereo unspecified)
163 to 164 | O=C(NCC12CC3CC(CC(C3)C1)C2)c1cc(I)cnc1Cl
